# Tests used:
# [1] = system: CHO-K1+EA-NLS/NRS+GR-PL cells; assay: EFC mitotic index assay, CHO-K1+EA-NLS/NRS+GR-PL cells, antibiotic selected pool (DX M19/GR pool); type: cell-based; settings: for Avg luminescence readout / R1 luminescence readout / R3 luminescence readout / Ratio (Avg vs 0 conc): 24 hours, 30 min read; for increase in EFC activity (in words): overnight treatment
# Description: (§1) In all experiments described, 20,000 cells/well were plated in a 96 well Corning clear bottom white plate in a total volume of 100 μL. The cells were treated for 24 hours with 5 μL of either the appropriate vehicle control or varying concentrations of the six compounds listed above. The next day, 100 μL of Tropix/ABI Gal screen cell lysis buffer/substrate mixture (24:1 ratio of component) was added to the cells/media and the plate was read on the Victor II luminescent plate reader at 30, 60 and 120 minutes after the lysis/substrate addition.
# (§2) The initial test of the cell cycle arresting compounds was performed on a double stable cell line having both of the constructs expressing the EA-NLS/NRS and GR-PL. (PL is β-galactosidase enzyme donor fragment and EA is the enzyme acceptor fragment available from DiscoveRx, Fremont, CA.). The parental line, C2C12 is derived from mouse muscle cells. In the experiments in which EA-NLS/NRS and GR-PL are expressed in the C2C12 parental cell line, the constructs were generated by subcloning the human GR sequence into a MFG-based retroviral vector that had been molecularly altered in a lab at Stanford. An MFG vector is described in U.S. Pat. No. 6,544,771. The EA-NLS/NRS fragment was subcloned into a wzl-based retroviral vector again molecularly altered in a lab at Stanford. In the experiments performed using a CHO-K1 parental cell line background the EA-NLS/NRS was subcloned into the Kpn I and Xba I sites of pcDNA3.1 Hygro vector from Invitrogen (catalog #V870-20). The plasmid was introduced into the cells via FuGene6 (Roche) transfection reagent. Cells were selected in the presence of 250 μg/mL of Hygromycin and single cell clones isolated that expressed the EA-NLS/NRS. The human GR gene was cloned by PCR and subcloned into the Xho I and Bam HI sites of the DiscoveRx vector-pCMV-myc-PL (C3). The plasmid was introduced into the selected EA-NLS/NRS expressing clone isolated above by FuGene 6 transfection. Another round of screening in the presence of 300-500 μg/mL of G418 was used to select GR-PL transfected clones. Clonal selection was performed to finally identify the clone that was used in these studies. In the studies using the CHO-K1+cyto-EA and cJUN-PL, the same Invitrogen pcDNA3.1 Hygro vector was used to express EA. In this case, the EA fragment was subcloned into the Kpn I/Not I sites of pcDNA3.1 Hygro. The plasmid DNA was introduced as described above using FuGene6 reagent. Cells were selected in the presence of 250 μg/mL of hygromycin and clonal selection was performed. The c-Jun gene was generated by PCR using an existing template copy of the gene and then subcloned into the Xho I/Bam HI sites of pCMV-PL-myc (C3).
# In the next experiment, an antibiotic selected pool population of CHO-K1 cells that express EA-NLS/NRS and GR-PL were tested with the same six set of cell cycle blocking compounds. […] FIGS. 2a and 2b show the immunofluorescence localization of EA and GR-PL in that the blue DAPI nuclear staining can be seen to be concentrated in the nucleus, while the green fluorescein stain on the antibody (from Abcam PLC) to the glucocorticoid receptor is seen in the cytoplasm. […] Again, six tables are presented one for each of the six drugs tested.
# This only occurs with compounds that block the cells in mitosis, allowing EA and ProLabel to complement.
# [2] = system: C2C12+EA-NLS/NRS+GR-PL cells; assay: EFC mitotic index assay, C2C12+EA-NLS/NRS+GR-PL cells (Stanford GR cells); type: cell-based, mouse; settings: 24 hours, 30 min read
# Description: as §1, §2
# [3] = system: CHO-K1+cyto-EA cells transfected with cJUN-PL; assay: EFC mitotic index assay, CHO-K1+cyto-EA cells transiently transfected with cJUN-PL; type: cell-based; settings: for Avg luminescence readout / R1 luminescence readout / R3 luminescence readout / Ratio (Avg vs 0 conc): overnight; for increase in EFC activity (in words): overnight incubation
# Description: as §2
# To further test the concept of sequestering of one β-galactosidase enzyme fragment in the nucleus (in this case PL) while localizing the other component in the cytoplasm (in this case EA) the following experiment was carried out. […] The cyto-EA cells were transiently transfected with cJUN-PL plasmid DNA. Two days after the transfection, the cells were re-plated into a 96 well Corning white clear bottom multiwell plate at 20,000 cells/well. The cells were allowed to adhere overnight and the next day were treated with titrating concentrations of the six different cell cycle blocking compounds. The incubation was carried out overnight. The next day the media was removed from the cells and 100 μL of Tropix/ABI Gal screen cell lysis/substrate reagent was added to the cells.
# [4] = system: Clone #69 CHO-K1 cells expressing EA-NLS/NRS and GR-PL; assay: EFC assay in stable clone #69 (CHO-K1, EA-NLS/NRS and GR-PL) with or without RU486 pre-incubation; type: cell-based; settings: overnight, vehicle pre-incubation
# Description: In the next experiment, a stable clone (clone #69) expressing both EA-NLS/NRS and GR-PL was isolated in a CHO-K1 parental background. […] 20,000 cells/well were plated in a 96 well white coming multi-well plate and allowed to adhere overnight. The next day, the cells were washed two times with serum free F12 media and 100 μL of serum free F12 media was added to the cells. The cells were then incubated in either vehicle (ethanol-1% final concentration) or 10 μM RU486 for one hour. To the cells, three different concentrations of dexamethasone (300, 100, 30 μM) (an agonist of GR), RU486 (30, 10, 3.33 μM), colchicine (1, 0.3, 0.1 μ/mL) or nocodazole (10, 3.33, 1.11 μg/mL) were added and the incubation went overnight at 37° C. with 5% CO2. The next day, the media was aspirated off and 100 μL of Tropix/ABI Gal screen cell lysis/substrate reagent was added to the cells. The plate was read on the Victor II reader at 30, 60 and 120 minutes.
# [5] = High conc (nocodazole 10 μg/mL, colchicine 1 μ/mL, dexamethasone 300 μM, RU486 30 μM)
# [6] = Low conc (nocodazole 1.11 μg/mL, colchicine 0.1 μ/mL, dexamethasone 30 μM, RU486 3.33 μM)
# [7] = Med conc (nocodazole 3.33 μg/mL, colchicine 0.3 μ/mL, dexamethasone 100 μM, RU486 10 μM)
smiles,measurement,setting,value
NC(=O)NO [Hydroxyurea],Avg luminescence readout,[1]; 1.0 μg/mL,4562
same,R1 luminescence readout,[1]; 1.0 μg/mL,4403
same,R3 luminescence readout,[1]; 1.0 μg/mL,4740
same,Ratio (Avg vs 0 conc),[1]; 1.0 μg/mL,1
same,Avg luminescence readout,[1]; 3.3 μg/mL,4389
same,R1 luminescence readout,[1]; 3.3 μg/mL,4423
same,R3 luminescence readout,[1]; 3.3 μg/mL,4304
same,Ratio (Avg vs 0 conc),[1]; 3.3 μg/mL,1
same,Avg luminescence readout,[1]; 10.0 μg/mL,3959
same,R1 luminescence readout,[1]; 10.0 μg/mL,3865
same,R3 luminescence readout,[1]; 10.0 μg/mL,3897
same,Ratio (Avg vs 0 conc),[1]; 10.0 μg/mL,1
same,Avg luminescence readout,[1]; 30.0 μg/mL,3793
same,R1 luminescence readout,[1]; 30.0 μg/mL,3825
same,R3 luminescence readout,[1]; 30.0 μg/mL,3785
same,Ratio (Avg vs 0 conc),[1]; 30.0 μg/mL,1
same,increase in EFC activity (in words),[1],did not cause an increase in EFC activity
same,Avg luminescence readout,[2]; 1.0 μg/mL,11689
same,R1 luminescence readout,[2]; 1.0 μg/mL,12080
same,R3 luminescence readout,[2]; 1.0 μg/mL,11424
same,Ratio (Avg vs 0 conc),[2]; 1.0 μg/mL,1
same,Avg luminescence readout,[2]; 3.3 μg/mL,11522
same,R1 luminescence readout,[2]; 3.3 μg/mL,12588
same,R3 luminescence readout,[2]; 3.3 μg/mL,11171
same,Ratio (Avg vs 0 conc),[2]; 3.3 μg/mL,1
same,Avg luminescence readout,[2]; 10.0 μg/mL,9211
same,R1 luminescence readout,[2]; 10.0 μg/mL,8813
same,R3 luminescence readout,[2]; 10.0 μg/mL,9419
same,Ratio (Avg vs 0 conc),[2]; 10.0 μg/mL,1
same,Avg luminescence readout,[2]; 30.0 μg/mL,7221
same,R1 luminescence readout,[2]; 30.0 μg/mL,7272
same,R3 luminescence readout,[2]; 30.0 μg/mL,7165
same,Ratio (Avg vs 0 conc),[2]; 30.0 μg/mL,1
same,Avg luminescence readout,[3]; 3.0 μg/mL,7420
same,R1 luminescence readout,[3]; 3.0 μg/mL,7319
same,R3 luminescence readout,[3]; 3.0 μg/mL,6690
same,Ratio (Avg vs 0 conc),[3]; 3.0 μg/mL,1.2
same,Avg luminescence readout,[3]; 10.0 μg/mL,7634
same,R1 luminescence readout,[3]; 10.0 μg/mL,8237
same,R3 luminescence readout,[3]; 10.0 μg/mL,6699
same,Ratio (Avg vs 0 conc),[3]; 10.0 μg/mL,1.3
same,Avg luminescence readout,[3]; 30.0 μg/mL,6984
same,R1 luminescence readout,[3]; 30.0 μg/mL,7217
same,R3 luminescence readout,[3]; 30.0 μg/mL,6624
same,Ratio (Avg vs 0 conc),[3]; 30.0 μg/mL,1.2
same,Avg luminescence readout,[3]; 100.0 μg/mL,7742
same,R1 luminescence readout,[3]; 100.0 μg/mL,7955
same,R3 luminescence readout,[3]; 100.0 μg/mL,7483
same,Ratio (Avg vs 0 conc),[3]; 100.0 μg/mL,1.3
same,increase in EFC activity (in words),[3],negligible increase in EFC activity
CC#C[C@]1(O)CC[C@H]2[C@@H]3CCC4=CC(=O)CCC4=C3[C@@H](c3ccc(N(C)C)cc3)C[C@@]21C [RU486],Avg luminescence readout,[4]; [5],2882
same,R1 luminescence readout,[4]; [5],3199
same,R3 luminescence readout,[4]; [5],2657
same,Ratio (Avg vs 0 conc),[4]; [5],1
same,Avg luminescence readout,[4]; [6],2416
same,R1 luminescence readout,[4]; [6],2692
same,R3 luminescence readout,[4]; [6],2298
same,Ratio (Avg vs 0 conc),[4]; [6],1
same,Avg luminescence readout,[4]; [7],2402
same,R1 luminescence readout,[4]; [7],2578
same,R3 luminescence readout,[4]; [7],2249
same,Ratio (Avg vs 0 conc),[4]; [7],1
"C[C@@]1(CO)[C@H](O)CC[C@@]2(C)[C@H]1CC[C@H]1C[C@@H]3C[C@@]12CC[C@]3(O)CO [Aphidicolin, aphidicolin]",Avg luminescence readout,[1]; 0.3 μM,5508
same,R1 luminescence readout,[1]; 0.3 μM,5478
same,R3 luminescence readout,[1]; 0.3 μM,5469
same,Ratio (Avg vs 0 conc),[1]; 0.3 μM,1
same,Avg luminescence readout,[1]; 1 μM,5604
same,R1 luminescence readout,[1]; 1 μM,5656
same,R3 luminescence readout,[1]; 1 μM,5491
same,Ratio (Avg vs 0 conc),[1]; 1 μM,1
same,Avg luminescence readout,[1]; 3.3 μM,4561
same,R1 luminescence readout,[1]; 3.3 μM,4392
same,R3 luminescence readout,[1]; 3.3 μM,4749
same,Ratio (Avg vs 0 conc),[1]; 3.3 μM,0
same,Avg luminescence readout,[1]; 10.0 μM,6941
same,R1 luminescence readout,[1]; 10.0 μM,7213
same,R3 luminescence readout,[1]; 10.0 μM,6651
same,Ratio (Avg vs 0 conc),[1]; 10.0 μM,1
same,increase in EFC activity (in words),[1],did not cause an increase in EFC activity
same,Avg luminescence readout,[2]; 0.3 μM,3444
same,R1 luminescence readout,[2]; 0.3 μM,3081
same,R3 luminescence readout,[2]; 0.3 μM,3500
same,Ratio (Avg vs 0 conc),[2]; 0.3 μM,1
same,Avg luminescence readout,[2]; 1 μM,3307
same,R1 luminescence readout,[2]; 1 μM,3250
same,R3 luminescence readout,[2]; 1 μM,3388
same,Ratio (Avg vs 0 conc),[2]; 1 μM,1
same,Avg luminescence readout,[2]; 3.3 μM,3132
same,R1 luminescence readout,[2]; 3.3 μM,3171
same,R3 luminescence readout,[2]; 3.3 μM,3105
same,Ratio (Avg vs 0 conc),[2]; 3.3 μM,1
same,Avg luminescence readout,[2]; 10.0 μM,3413
same,R1 luminescence readout,[2]; 10.0 μM,2827
same,R3 luminescence readout,[2]; 10.0 μM,3765
same,Ratio (Avg vs 0 conc),[2]; 10.0 μM,1
same,Avg luminescence readout,[3]; 1.5 μg/mL,7545
same,R1 luminescence readout,[3]; 1.5 μg/mL,7218
same,R3 luminescence readout,[3]; 1.5 μg/mL,7576
same,Ratio (Avg vs 0 conc),[3]; 1.5 μg/mL,0.9
same,Avg luminescence readout,[3]; 4.4 μg/mL,9193
same,R1 luminescence readout,[3]; 4.4 μg/mL,9492
same,R3 luminescence readout,[3]; 4.4 μg/mL,9245
same,Ratio (Avg vs 0 conc),[3]; 4.4 μg/mL,1.1
same,Avg luminescence readout,[3]; 13.3 μg/mL,7027
same,R1 luminescence readout,[3]; 13.3 μg/mL,6677
same,R3 luminescence readout,[3]; 13.3 μg/mL,7784
same,Ratio (Avg vs 0 conc),[3]; 13.3 μg/mL,0.8
same,Avg luminescence readout,[3]; 40.0 μg/mL,9131
same,R1 luminescence readout,[3]; 40.0 μg/mL,8645
same,R3 luminescence readout,[3]; 40.0 μg/mL,9818
same,Ratio (Avg vs 0 conc),[3]; 40.0 μg/mL,1.0
same,increase in EFC activity (in words),[3],negligible increase in EFC activity
"C[C@@H]1C[C@H]2[C@@H]3CCC4=CC(=O)C=C[C@]4(C)[C@@]3(F)[C@@H](O)C[C@]2(C)[C@@]1(O)C(=O)CO [Dexamethasone, dexamethasone]",Avg luminescence readout,[4]; [5],2559
same,R1 luminescence readout,[4]; [5],3173
same,R3 luminescence readout,[4]; [5],1934
same,Ratio (Avg vs 0 conc),[4]; [5],7
same,Avg luminescence readout,[4]; [6],1258
same,R1 luminescence readout,[4]; [6],1528
same,R3 luminescence readout,[4]; [6],1016
same,Ratio (Avg vs 0 conc),[4]; [6],3
same,Avg luminescence readout,[4]; [7],1697
same,R1 luminescence readout,[4]; [7],2033
same,R3 luminescence readout,[4]; [7],1290
same,Ratio (Avg vs 0 conc),[4]; [7],4

# From patent publication US20070015232A1, “Mitotic index assay” (DiscoveRx, Inc., priority 2005, published 2007)
